Laboratory results as given in US20240051931A1, “HDAC INHIBITORS” (University of Pittsburgh - Of the Commonwealth System of …, priority 2020, published 2024).

Key:
[1] = target: T1, HDAC 6 (Homo sapiens, UniProt Q9UBN7); test: HDAC 6 activity at fixed concentration (Table 2); type: biochemical; design: unit not given here; conditions: compound at 50 nM
T1 sequence (Q9UBN7 1-1215): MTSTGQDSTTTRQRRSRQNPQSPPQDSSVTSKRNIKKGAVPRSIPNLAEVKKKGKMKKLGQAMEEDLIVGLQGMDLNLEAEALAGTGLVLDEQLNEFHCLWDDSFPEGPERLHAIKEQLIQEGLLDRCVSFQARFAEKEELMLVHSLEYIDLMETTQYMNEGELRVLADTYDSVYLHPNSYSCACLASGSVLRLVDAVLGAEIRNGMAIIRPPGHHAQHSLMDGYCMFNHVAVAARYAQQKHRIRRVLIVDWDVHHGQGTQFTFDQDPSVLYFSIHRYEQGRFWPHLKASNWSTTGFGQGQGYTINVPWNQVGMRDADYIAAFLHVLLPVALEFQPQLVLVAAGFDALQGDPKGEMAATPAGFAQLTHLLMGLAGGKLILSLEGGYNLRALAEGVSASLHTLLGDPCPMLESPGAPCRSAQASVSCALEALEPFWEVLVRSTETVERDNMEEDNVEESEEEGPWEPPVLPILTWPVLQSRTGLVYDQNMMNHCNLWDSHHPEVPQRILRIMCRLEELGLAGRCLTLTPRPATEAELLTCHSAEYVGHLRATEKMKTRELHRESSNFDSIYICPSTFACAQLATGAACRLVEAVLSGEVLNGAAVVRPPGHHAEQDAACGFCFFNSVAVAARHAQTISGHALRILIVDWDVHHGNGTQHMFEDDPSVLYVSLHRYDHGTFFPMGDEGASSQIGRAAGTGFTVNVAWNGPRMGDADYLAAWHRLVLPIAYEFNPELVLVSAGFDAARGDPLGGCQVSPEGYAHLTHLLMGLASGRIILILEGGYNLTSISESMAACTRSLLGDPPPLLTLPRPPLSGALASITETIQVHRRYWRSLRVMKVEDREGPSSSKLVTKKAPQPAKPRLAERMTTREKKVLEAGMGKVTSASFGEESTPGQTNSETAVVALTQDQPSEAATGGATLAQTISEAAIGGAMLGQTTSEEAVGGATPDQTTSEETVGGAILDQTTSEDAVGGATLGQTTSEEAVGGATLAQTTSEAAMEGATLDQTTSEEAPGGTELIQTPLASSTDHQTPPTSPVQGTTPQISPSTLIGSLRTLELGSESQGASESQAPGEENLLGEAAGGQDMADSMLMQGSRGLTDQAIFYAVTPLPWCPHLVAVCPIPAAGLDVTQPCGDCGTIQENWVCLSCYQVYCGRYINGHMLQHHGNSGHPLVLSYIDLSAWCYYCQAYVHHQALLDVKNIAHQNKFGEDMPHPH

[2] = tested on: PanHDAC; test: PanHDAC activity at fixed concentration (Table 2); type: biochemical; design: unit not given here; conditions: compound at 1 uM

HDAC 6 at 50 nM [1]	Structure (SMILES)	PanHDAC at 1 uM [2]
33	O=C(NO)C1CCc2cc(Cl)ccc2O1 (stereo not drawn) [Compound 1-1]	0
5	O=C(NO)C1CCc2cccc(NS(=O)(=O)c3ccc(F)cc3)c2O1 (stereo not drawn) [Compound 1-2]	0
46	O=C(NO)[C@@H]1CCc2ccccc2O1 [Compound 1-3]	0
47	O=C(NO)[C@H]1CCc2ccccc2O1 [Compound 1-4]	0
29	COc1ccc(C(=O)Nc2ccc3c(c2)CCC(C(=O)NO)O3)cc1 (stereo not drawn) [Compound 1-5]	0
41	O=C(Nc1ccc2c(c1)CCC(C(=O)NO)O2)c1ccc(S(F)(F)(F)(F)F)cc1 (stereo not drawn) [Compound 1-6]	0
35	O=C(NO)C1CCc2cc(CCCOc3ccc(F)cc3)ccc2O1 (stereo not drawn) [Compound 1-7]	0
0	O=C(Nc1cccc2c1OC(C(=O)NO)CC2)OCc1ccccc1 (stereo not drawn) [Compound 1-8]	0
50	O=C(Nc1ccc2c(c1)CCC(C(=O)NO)O2)OCc1ccccc1 (stereo not drawn) [Compound 1-9]	0
42	O=C(NO)C1CCc2cc(C#CCOc3ccc(F)cc3)ccc2O1 (stereo not drawn) [Compound 1-10]	0
25	C#Cc1ccc2c(c1)CCC(C(=O)NO)O2 (stereo not drawn) [Compound 1-11]	3
28	O=C(NCc1ccccc1)Nc1cccc2c1OC(C(=O)NO)CC2 (stereo not drawn) [Compound 1-12]	0
23	O=C(Nc1cccc2c1OC(C(=O)NO)CC2)OCc1ccccc1Cl (stereo not drawn) [Compound 1-13]	0
0	O=C(NO)C1CCc2cc(NS(=O)(=O)c3cc(Cl)cc(Cl)c3)ccc2O1 (stereo not drawn) [Compound 1-14]	21
26	O=C(NCc1ccc(Cl)c(C(F)(F)F)c1)Nc1ccc2c(c1)CCC(C(=O)NO)O2 (stereo not drawn) [Compound 1-15]	0
73	O=C(NO)C1CCc2cc(CCCOC(=O)N3CCc4ccccc4C3)ccc2O1 (stereo not drawn) [Compound 1-16]	0
40	O=C(NO)C1CCc2ccc(O)cc2O1 (stereo not drawn) [Compound 1-17]	0
68	O=C(NO)C1CCc2cc(-c3ccc(F)cc3)ccc2O1 (stereo not drawn) [Compound 1-18]	0
27	O=C(NO)C1CCc2cc(C#CCCC(=O)N3CCc4ccccc4C3)ccc2O1 (stereo not drawn) [Compound 1-19]	0

HDAC 6 at 50 nM [1]	Structure (SMILES)	PanHDAC at 1 uM [2]
32	O=C(NO)C1CCc2ccc(OCc3ccc(C(F)(F)F)cc3)cc2O1 (stereo not drawn) [Compound 1-20]	0
73	O=C(NO)C1CCc2cc(-c3ccc(Cl)c(Cl)c3)ccc2O1 (stereo not drawn) [Compound 1-21]	0
0	C[C@@H]1Cc2ccccc2O[C@@H]1C(=O)NO [Compound 1-22]	0
50	O=C(NO)C1CCc2cc(-c3ccc(-c4ccccc4)cc3)ccc2O1 (stereo not drawn) [Compound 1-23]	0
23	O=C(NO)C1CCc2ccc(OCc3ccccn3)cc2O1 (stereo not drawn) [Compound 1-24]	0
0	O=C(NO)C1CCc2ccc(OCCOc3ccc(F)cc3)cc2O1 (stereo not drawn) [Compound 1-25]	0
20	O=C(Nc1ccc2c(c1)CC[C@@H](C(=O)NO)O2)c1cc(Cl)cc(Cl)c1 [Compound 1-26]	0
31	CN1CC(C(=O)NO)Oc2ccccc21 (stereo not drawn) [Compound 1-27]	0
44	Cn1ccc2cc(-c3ccc4c(c3)CCC(C(=O)NO)O4)ccc21 (stereo not drawn) [Compound 1-28]	0
37	CO[C@@H]1C[C@@H](C(=O)NO)Oc2ccccc21 [Compound 1-29]	0
29	CC(C)COC(=O)Nc1cccc2c1OC(C(=O)NO)CC2 (stereo not drawn) [Compound 1-30]	0
41	O=C(NO)C1CCc2cccc(NS(=O)(=O)CC(F)(F)F)c2O1 (stereo not drawn) [Compound 1-31]	0
70	COc1ccc(COC(=O)Nc2ccc3c(c2)CCC(C(=O)NO)O3)cc1 (stereo not drawn) [Compound 1-32]	14
32	O=C(Nc1ccc2c(c1)CCC(C(=O)NO)O2)OCc1ccccc1Cl (stereo not drawn) [Compound 1-33]	0
13	O=C(Nc1cccc2c1O[C@@H](C(=O)NO)CC2)OCc1ccccc1Cl [Compound 1-34]	0
0	O=C(NO)C1CCc2cccc(NS(=O)(=O)c3cccc4ccccc34)c2O1 (stereo not drawn) [Compound 1-35]	0
6	O=C(NCCc1c[nH]c2ccccc12)Nc1cccc2c1OC(C(=O)NO)CC2 (stereo not drawn) [Compound 1-36]	0
2	CS(=O)(=O)Nc1cccc2c1OC(C(=O)NO)CC2 (stereo not drawn) [Compound 1-37]	6
21	Cc1ccc(S(=O)(=O)Nc2cccc3c2OC(C(=O)NO)CC3)cc1 (stereo not drawn) [Compound 1-38]	0

HDAC 6 at 50 nM [1]	Structure (SMILES)	PanHDAC at 1 uM [2]
34	O=C(NCc1cccc(S(F)(F)(F)(F)F)c1)Nc1cccc2c1OC(C(=O)NO)CC2 (stereo not drawn) [Compound 1-39]	0
30	O=C(Nc1ccc(F)cc1)Nc1cccc2c1OC(C(=O)NO)CC2 (stereo not drawn) [Compound 1-40]	0
55	O=C(Cc1c[nH]c2ccccc12)Nc1ccc2c(c1)CCC(C(=O)NO)O2 (stereo not drawn) [Compound 1-41]	0
14	O=C(Nc1cccc2c1OC(C(=O)NO)CC2)OCc1ccc(C(F)(F)F)cc1 (stereo not drawn) [Compound 1-42]	0
34	O=C(NCc1cccc(S(F)(F)(F)(F)F)c1)Nc1ccc2c(c1)CCC(C(=O)NO)O2 (stereo not drawn) [Compound 1-43]	0
29	Cc1ccc(COc2ccc3c(c2)OC(C(=O)NO)CC3)cc1 (stereo not drawn) [Compound 1-44]	0
0	O=C(COc1ccc(Cl)c(Cl)c1)Nc1cccc2c1OC(C(=O)NO)CC2 (stereo not drawn) [Compound 1-45]	0
48	O=C(Nc1ccc(F)cc1)Nc1ccc2c(c1)CCC(C(=O)NO)O2 (stereo not drawn) [Compound 1-46]	0
53	COc1ccccc1COc1ccc2c(c1)OC(C(=O)NO)CC2 (stereo not drawn) [Compound 1-47]	0
0	O=C(NO)C1CCc2ccc(OCc3ccc(F)cc3)cc2O1 (stereo not drawn) [Compound 1-48]	0
0	O=C(NO)C1CCc2ccc(OCCc3ccccc3)cc2O1 (stereo not drawn) [Compound 1-49]	0
48	O=C(NO)C1CCc2ccc(OCc3ccc(Cl)cc3)cc2O1 (stereo not drawn) [Compound 1-50]	0
64	O=C(NO)C1CCc2cc(NS(=O)(=O)c3cccc4ccccc34)ccc2O1 (stereo not drawn) [Compound 1-51]	8
0	COc1ccc(CNC(=O)Nc2ccc3c(c2)CCC(C(=O)NO)O3)cc1 (stereo not drawn) [Compound 1-52]	0
25	O=C(COc1ccccc1Cl)Nc1cccc2c1O[C@H](C(=O)NO)CC2 [Compound 1-53]	0
39	O=C(NO)C1CCc2ccc(-c3ccc(Cl)c(Cl)c3)cc2O1 (stereo not drawn) [Compound 1-54]	0
44	Cn1ccc2cc(-c3ccc4c(c3)OC(C(=O)NO)CC4)ccc21 (stereo not drawn) [Compound 1-55]	0
13	COc1ccc(-c2ccc3c(c2)OC(C(=O)NO)CC3)cc1 (stereo not drawn) [Compound 1-56]	0
7	O=C(Nc1ccc2c(c1)CC[C@@H](C(=O)NO)O2)c1ccc(-c2ccccc2)cc1 [Compound 1-57]	0
